Tests used:
Format in all cases: in vivo
soybeans = experiment: Crop tolerance, soybeans; settings: preemergence; 50% or less kill of crop at rates giving more than 50% kill of weeds
Description: (§1) The following test procedure is employed. Seeds of selected crops and weeds are planted in soil in flats. For preemergence tests, the flats are treated with the test compound immediately after the planting. For postemergence tests, the seeds are allowed to germinate, and after 2 weeks the flats are treated with the test compound. The compound to be evaluated is dissolved in acetone, diluted with water, and sprayed over the flats using a carrier volume equivalent to 50 gallons per acre at the rate of application (pounds per acre, lb/A.) specified in the tables. About 2 weeks after the application of the test compound, the state of growth of the plants is observed and the phytotoxic effect of the compound is evaluated. Table II gives the average percent control achieved by the test compounds in terms of the percent of the plants which are killed by the compounds.
(§2) Following the general test procedure of Example 73, diphenyl ethers are evaluated for significant tolerance (as shown by 50% or less kill of the test crop at levels of application which give more than 50% kill of many or all of the weeds of Example 73) towards some or all of the following common agronomic crops (not all compounds tested against all crops): alfalfa, snapbeans, corn, cotton, cucumbers, peanuts, rape, rice, safflower, soybeans, tomatoes, and wheat.

Dicots [1] = experiment: Herbicidal activity, preemergence, dicot weeds (Table II); settings: pre-emergence, 336 h, about 2 weeks, read-out: % control (percent of plants killed); for pest or weed control at 2241.7 g/ha: 2 lb./A.; for pest or weed control at 4483.4 g/ha: 4 lb./A.
Description: (§3) Using the procedure described below, diphenyl ethers were evaluated for control of the following weeds: […]
(§4) bindweed (Convolvulus arvensis) curly dock (Remex crispus) velvetleaf (Abutilon theophrasti) wild mustard (Brassica haber)
(§5) At 2 and 4 pounds per acre: […]
(§6) cocklebur (Xanthium pensylvanicum)
(§7) **coffeeweed (Sesbania macrocarpa)
(§8) *curly dock (Rumex crispus)
(§9) *lambsquarters (Chenopodium album) morningglory (Ipomoea purpurea)
(§10) *pigweed (Amaranthus retroflexus)
(§11) **ragweed (Ambrosia artemisiifolia)
(§12) *smartweed (Polygonum pensylvanicum)
(§13) **tomato (Lycopersicon esculentum)
(§14) *wild carrot (Daucus carota)
(§15) *wild mustard (Brassica haber)
as §1

corn = experiment: Crop tolerance, corn; settings: 50% or less kill of crop at rates giving more than 50% kill of weeds
Description: as §1, §2

Monocots [2] = experiment: Herbicidal activity, preemergence, monocot weeds (Table II); settings: pre-emergence, 336 h, about 2 weeks, read-out: % control (percent of plants killed); for pest or weed control at 2241.7 g/ha: 2 lb./A.; for pest or weed control at 4483.4 g/ha: 4 lb./A.
Description: as §3
(§16) barnyardgrass (Echinochloa crusgalli) crabgrass (Digitaria spp.) nutsedge (Cyperus esculentus)
(§17) At 2 and 4 pounds per acre:
(§18) **Bermudagrass (Cynodon dactylon)
(§19) *downy brome (Bromus tectorum) foxtail (Setaria faberii)
(§20) Johnsongrass (Sorghum halepense) […]
(§21) quackgrass (Agropyron repens)
(§22) *ryegrass (Lolium perenne)
(§23) *yellow millet (Panicum miliaceum)
as §1

rice = experiment: Crop tolerance, rice; settings: 50% or less kill of crop at rates giving more than 50% kill of weeds
Description: as §1, §2

Monocots [3] = experiment: Herbicidal activity, postemergence, monocot weeds (Table II); settings: post-emergence, 336 h, about 2 weeks, read-out: % control (percent of plants killed); for pest or weed control at 2241.7 g/ha: 2 lb./A.; for pest or weed control at 4483.4 g/ha: 4 lb./A.
Description: as §3, §16, §17, §18, §19, §20, §21, §22, §23, §1

Dicots [4] = experiment: Herbicidal activity, postemergence, dicot weeds (Table II); settings: post-emergence, 336 h, about 2 weeks, read-out: % control (percent of plants killed); for pest or weed control at 2241.7 g/ha: 2 lb./A.; for pest or weed control at 4483.4 g/ha: 4 lb./A.
Description: as §3, §4, §5, §6, §7, §8, §9, §10, §11, §12, §13, §14, §15, §1

peanuts = experiment: Crop tolerance, peanuts; settings: 50% or less kill of crop at rates giving more than 50% kill of weeds
Description: as §1, §2

wheat = experiment: Crop tolerance, wheat; settings: 50% or less kill of crop at rates giving more than 50% kill of weeds
Description: as §1, §2

[5] = postemergence or on transplanted rice

SMILES	Tolerance to soybeans (soybeans)	pest or weed control at 2241.7 g/ha (Dicots [1]) [%]	pest or weed control at 4483.4 g/ha (Dicots [1]) [%]	Tolerance to corn (corn; preemergence)	pest or weed control at 2241.7 g/ha (Monocots [2]) [%]	pest or weed control at 4483.4 g/ha (Monocots [2]) [%]	Tolerance to rice (rice; [5])	pest or weed control at 2241.7 g/ha (Monocots [3]) [%]	pest or weed control at 4483.4 g/ha (Monocots [3]) [%]	pest or weed control at 2241.7 g/ha (Dicots [4]) [%]	pest or weed control at 4483.4 g/ha (Dicots [4]) [%]	Tolerance to peanuts (peanuts; postemergence)	Tolerance to corn (corn; postemergence)	Tolerance to wheat (wheat; postemergence)	Tolerance to wheat (wheat; preemergence)	Tolerance to peanuts (peanuts; preemergence)	Tolerance to rice (rice; preemergence)
O=[N+]([O-])c1ccc(Oc2ccc(C(F)(F)F)cc2Cl)cc1OCC(F)(F)F [Example 11]	Tolerance	99	98	Tolerance	88	81	Tolerance	100	82	100	99	–	–	–	–	–	–
CC(=O)Oc1cc(Oc2ccc(C(F)(F)F)cc2Cl)ccc1[N+](=O)[O-] [Example 18, 2-Chloro-α,α,α-trifluoro-p-tolyl-3-acetoxy-4-nitrophenyl ether]	Tolerance	100	100	–	99	67	Tolerance	28	28	98	86	Tolerance	Tolerance	Tolerance	Tolerance	–	–
CCNc1cc(Oc2ccc(C(F)(F)F)cc2Cl)ccc1[N+](=O)[O-] [Example 19, 2-Chloro-α,α,α-trifluoro-p-tolyl-3-ethylamino-4-nitrophenyl ether]	Tolerance	91	96	Tolerance	77	91	–	94	84	97	98	–	Tolerance	–	Tolerance	Tolerance	Tolerance
CCN(CC)c1cc(Oc2ccc(C(F)(F)F)cc2Cl)ccc1[N+](=O)[O-] [Example 21, 2-Chloro-α,α,α-trifluoro-p-tolyl-3-diethylamino-4-nitrophenyl ether]	Tolerance	90	99	Tolerance	79	91	–	90	74	94	96	–	Tolerance	Tolerance	–	Tolerance	Tolerance
Cc1cc(Oc2ccc(C(F)(F)F)cc2Cl)ccc1[N+](=O)[O-] [Example 36, 2-chloro-α,α,α-trifluoro-p-tolyl-4-nitro-m-tolyl ether]	–	100	100	–	100	93	–	94	87	98	100	Tolerance	Tolerance	Tolerance	–	Tolerance	–
O=C(O)c1cc(Oc2ccc(C(F)(F)F)cc2Cl)ccc1[N+](=O)[O-] [Example 48, 2-Chloro-α,α,α-trifluoro-p-tolyl-3-carboxy-4-nitrophenyl ether]	Tolerance	100	97	–	100	99	Tolerance	84	75	97	100	Tolerance	–	Tolerance	–	Tolerance	–
COC(=O)c1cc(Oc2ccc(C(F)(F)F)cc2Cl)ccc1[N+](=O)[O-] [Example 49, 2-chloro-α,α,α-trifluoro-p-tolyl-3-carbomethoxy-4-nitrophenyl ether]	Tolerance	100	95	–	100	92	–	77	86	100	100	–	Tolerance	–	–	Tolerance	–
COC(=O)C(C)Oc1cc(Oc2ccc(C(F)(F)F)cc2Cl)ccc1[N+](=O)[O-] (centres unmarked) [Example 50]	Tolerance	100	83	–	98	90	–	100	97	100	100	–	–	–	Tolerance	Tolerance	–
CNC(=O)C(C)Oc1cc(Oc2ccc(C(F)(F)F)cc2Cl)ccc1[N+](=O)[O-] (centres unmarked) [Example 52]	Tolerance	75	67	Tolerance	98	79	–	93	87	100	100	–	Tolerance	–	–	Tolerance	Tolerance
CC(Oc1cc(Oc2ccc(C(F)(F)F)cc2Cl)ccc1[N+](=O)[O-])C(=O)N(C)C (centres unmarked) [Example 53]	Tolerance	100	83	–	98	98	Tolerance	81	79	100	100	Tolerance	Tolerance	–	–	Tolerance	–
CCOc1cc(Oc2c(Cl)cc(C(F)(F)F)cc2Cl)ccc1[N+](=O)[O-] [Example 56, 2,6-Dichloro-α,α,α-trifluoro-p-tolyl-3-ethoxy-4-nitrophenyl ether]	–	100	83	–	100	91	–	100	99	99	100	–	Tolerance	–	Tolerance	Tolerance	–

— USRE31731E, “Herbicidal 4-trifluoromethyl-4-nitrodiphenyl ethers” (priority 1978, dated 1984)
